Assay results taken from DBAASP.
Values after ≈ are worked out from the molar mass of the structure shown. Values joined by “and” are separate entries in the source; they are usually repeats but may differ in a detail not shown here. Equal values may be shown once. Blank lines part the entries; values can stand above or below the compound they belong to.

How the values were obtained:
Test in all cases: ≥ marks a high value that may be exact or a test limit, other limits are often not marked, values filed in µg/mL are converted to µM
[1] = system: Candida tropicalis CCARM 14019
[2] = system: Pseudomonas aeruginosa AB93066
[3] = system: Staphylococcus aureus P1381
[4] = system: Pseudomonas aeruginosa ATCC 9027
[5] = system: Escherichia coli ATCC 25922
[6] = system: Staphylococcus aureus AB94004
Escherichia coli AB94012 = system: Escherichia coli AB94012
[7] = system: Staphylococcus aureus P1374
[8] = system: Staphylococcus aureus ATCC 6538
[9] = system: Staphylococcus aureus ATCC 25923
Pseudomonas aeruginosa = system: Pseudomonas aeruginosa
Bacillus subtilis 168 = system: Bacillus subtilis 168
Staphylococcus aureus = system: Staphylococcus aureus
[10] = system: Micrococcus luteus CCM 144
[11] = system: Candida albicans F7-39/IDE99
Escherichia coli B = system: Escherichia coli B
[12] = system: Corynebacterium stationis CIP 101282
[13] = system: Staphylococcus haemolyticus
[14] = system: Vibrio nigripulchritudo CIP 103195
[15] = system: Microbacterium maritypicum CIP 105733T
[16] = system: Bacillus megaterium CIP 6620
Escherichia coli SBS 363 = system: Escherichia coli SBS 363
[17] = system: Vibrio splendidus CIP 107715
[18] = system: Micrococcus luteus CIP 5345
[19] = system: Staphylococcus aureus CIP 103428
[20] = system: Staphylococcus aureus SG511
[21] = system: Pseudomonas aeruginosa 6294
Burkholderia cepacia = system: Burkholderia cepacia
Staphylococcus aureus 31 = system: Staphylococcus aureus 31
[22] = system: Elizabethkingia meningoseptica
Staphylococcus aureus 38 = system: Staphylococcus aureus 38
[23] = system: Pseudomonas aeruginosa 6206
Delftia acidovorans = system: Delftia acidovorans
[24] = system: Pseudomonas aeruginosa PAER1
[25] = system: Pseudomonas aeruginosa ATCC 19660
[26] = system: Stenotrophomonas maltophilia
[27] = system: Salmonella enterica subsp. enterica serovar Enteritidis
Salmonella sp. = system: Salmonella sp.
[28] = system: Staphylococcus aureus ATCC 43300
[29] = system: Cryptococcus neoformans ATCC 32264
Escherichia coli = system: Escherichia coli
[30] = system: Candida albicans ATCC 10231
[31] = system: Pseudomonas aeruginosa ATCC 27853
[32] = system: Staphylococcus aureus ATCC 33591
[33] = system: Staphylococcus aureus ATCC 29213
Yersinia enterocolitica = system: Yersinia enterocolitica
[34] = system: Fusarium graminearum PH-1

- MIC [1]: 0.466 µM and 0.931 µM
Structure (SMILES): CC(C)C[C@H](NC(=O)CNC(=O)[C@H](Cc1cnc[nH]1)NC(=O)[C@H](Cc1cnc[nH]1)NC(=O)[C@H](CCCN=C(N)N)NC(=O)[C@H](CCCCN)NC(=O)[C@H](C)N)C(=O)N[C@@H](CC(N)=O)C(=O)N[C@@H](CS)C(=O)N[C@@H](C)C(=O)N[C@@H](CCCCN)C(=O)N[C@@H](Cc1ccccc1)C(=O)N[C@@H](Cc1cnc[nH]1)C(N)=O [AKRHHGLNCAKFH]

- MIC [2]: ≥ 32.3 µM
- MIC [3]: 4.04 µM (≈ 6.25 µg/mL)
- MIC [4]: 16.2 µM (≈ 25 µg/mL)
- MIC [5]: 64.7 µM (≈ 99.9 µg/mL)
- MIC [6]: 4.04 µM (≈ 6.25 µg/mL)
- MIC (Escherichia coli AB94012): 16.2 µM (≈ 25 µg/mL)
- MIC [7]: 4.04 µM (≈ 6.25 µg/mL)
- MIC [8]: 4.04 µM (≈ 6.25 µg/mL)
- MIC [9]: 8.09 µM (≈ 12.5 µg/mL)
Structure (SMILES): CC[C@H](C)[C@H](NC(=O)CN)C(=O)N[C@@H](CC(C)C)C(=O)NCC(=O)N[C@@H](CCCCN)C(=O)N[C@@H](CC(C)C)C(=O)N[C@@H](Cc1c[nH]c2ccccc12)C(=O)N[C@@H](CCCCN)C(=O)NCC(=O)N[C@H](C(=O)N[C@@H](CCCCN)C(=O)N[C@@H](CO)C(=O)N[C@H](C(=O)N[C@@H](Cc1ccccc1)C(N)=O)[C@@H](C)CC)C(C)C [GILGKLWKGVKSIF]

- MIC (Pseudomonas aeruginosa): 100 µM (≈ 193 µg/mL)
- MIC (Bacillus subtilis 168): 3.1 µM (≈ 5.99 µg/mL)
- MIC (Staphylococcus aureus): 35 µM (≈ 67.6 µg/mL)
- MIC [10]: 1.4 µM (≈ 2.71 µg/mL)
- MIC [11]: ≥ 56.3 µM
- MIC (Escherichia coli B): 2.9 µM (≈ 5.6 µg/mL)
Structure (SMILES): CC[C@H](C)[C@H](NC(=O)[C@H](CC(C)C)NC(=O)[C@H](CCCCN)NC(=O)[C@@H](NC(=O)[C@@H](NC(=O)[C@H](Cc1cnc[nH]1)NC(=O)[C@@H]1CCCN1C(=O)[C@H](CC(C)C)NC(=O)[C@@H](NC(=O)[C@H](CCCCN)NC(=O)[C@H](C)NC(=O)[C@H](CC(C)C)NC(=O)[C@H](CCCCN)NC(=O)[C@H](CO)NC(=O)[C@H](C)NC(=O)[C@H](CCSC)NC(=O)CN)C(C)C)C(C)C)C(C)C)C(=O)N[C@@H](CCCCN)C(=O)O [GMASKLAKVLPHVVKLIK]

- MIC [12]: 20 µM (≈ 31.1 µg/mL)
- MIC [14]: ≥ 40 µM
- MIC [15]: 20 µM (≈ 31.1 µg/mL)
- MIC [16]: 20 µM (≈ 31.1 µg/mL)
- MIC (Escherichia coli SBS 363): ≥ 80 µM
- MIC [17]: ≥ 40 µM
- MIC [18]: ≥ 80 µM
- MIC [19]: 20 µM (≈ 31.1 µg/mL)
- MIC [20]: 20 µM (≈ 31.1 µg/mL)
Structure (SMILES): CC[C@H](C)[C@H](NC(=O)[C@@H]1CCCN1C(=O)CN)C(=O)N[C@@H](CCCN=C(N)N)C(=O)N[C@@H](CCCN=C(N)N)C(=O)N1CCC[C@H]1C(=O)N[C@@H](CCC(=O)O)C(=O)N1CCC[C@H]1C(=O)N[C@@H](CCCN=C(N)N)C(=O)N1CCC[C@H]1C(=O)N[C@@H](CCCN=C(N)N)C(=O)N1CCC[C@H]1C(=O)N[C@@H](CCC(=O)O)C(=O)O [GPIRRPEPRPRPE]
- MIC [13]: 20 µM (≈ 31.1 µg/mL)

- MIC [21]: ≥ 106 µM
- MIC (Burkholderia cepacia): ≥ 426 µM
- MIC (Staphylococcus aureus 31): ≥ 106 µM
- MIC [22]: ≥ 213 µM
- MIC [8]: 53.2 µM (≈ 125 µg/mL)
- MIC (Staphylococcus aureus 38): ≥ 106 µM
- MIC [23]: 26.6 µM (≈ 62.5 µg/mL)
- MIC (Delftia acidovorans): ≥ 426 µM
- MIC [24]: ≥ 106 µM
- MIC [25]: 26.6 µM (≈ 62.5 µg/mL)
- MIC [26]: 13.3 µM (≈ 31.2 µg/mL)
Structure (SMILES): NCCCC[C@H](NC(=O)[C@H](CCCN=C(N)N)NC(=O)[C@H](CCCCN)NC(=O)[C@H](CC(N)=O)NC(=O)[C@@H](N)CCCCN)C(=O)N[C@@H](CCCN=C(N)N)C(=O)N[C@@H](CCCN=C(N)N)C(=O)N[C@@H](CCCN=C(N)N)C(=O)N[C@@H](CCCN=C(N)N)C(=O)N[C@@H](CCCN=C(N)N)C(=O)N[C@@H](CCCN=C(N)N)C(=O)NCC(=O)NCC(=O)N[C@@H](CCCN=C(N)N)C(=O)N[C@@H](CCCN=C(N)N)C(=O)N[C@@H](CCCN=C(N)N)C(=O)N[C@@H](CCCN=C(N)N)C(=O)O [KNKRKRRRRRRGGRRRR]

- MIC [27]: 25 µM (≈ 54 µg/mL)
- MIC (Salmonella sp.): ≥ 50 µM
- MIC [5]: 64 µM and 50 µM
- MIC [28]: > 50 µM
- MIC [29]: ≥ 50 µM
- MIC (Escherichia coli): 17.7 µM (≈ 38.2 µg/mL)
- MIC [30]: 50 µM (≈ 108 µg/mL)
- MIC [31]: > 50 µM
- MIC [32]: ≥ 256 µM
- MIC [33]: > 50 µM
- MIC (Yersinia enterocolitica): ≥ 50 µM
Structure (SMILES): CC[C@H](C)[C@H](NC(=O)[C@H](CCCCN)NC(=O)[C@@H](NC(=O)[C@H](CCC(N)=O)NC(=O)[C@@H](N)CCCCN)[C@@H](C)CC)C(=O)N[C@@H](Cc1c[nH]c2ccccc12)C(=O)N[C@@H](Cc1ccccc1)C(=O)N[C@@H](CCC(N)=O)C(=O)N[C@@H](CC(N)=O)C(=O)N[C@@H](CCCCN)C(=O)N[C@@H](CCCCN)C(=O)N[C@@H](CCSC)C(=O)N[C@@H](CCCCN)C(=O)N[C@@H](Cc1c[nH]c2ccccc12)C(=O)N[C@@H](CCCCN)C(=O)N[C@@H](CCCCN)C(N)=O [KQIKIWFQNKKMKWKK]

- MIC [34]: ≥ 96 µM
Structure (SMILES): NC(N)=NCCC[C@H](NC(=O)[C@H](Cc1ccccc1)NC(=O)[C@H](CC(=O)O)NC(=O)[C@H](CC(=O)O)NC(=O)[C@@H](N)CCCN=C(N)N)C(=O)O [RDDFR]
